We go through 5 compounds from patent EP2386552A1, “Process for the preparation of (R) a-lipoic acid salts, their formulation and use in pharmaceutical compositions, in form of tablets containing them” (priority 2010, dated 2011).

Data set [1] is described as follows: pH of 1 % solution in water. Format: physicochemical.
A further data set is described as follows: Powder apparent density. Conditions: in g/mL. Format: physicochemical. From the text: As solvents, 1-4 carbon atom aliphatic alcohols are used, having linear or branched chain, pure or denaturated by usual denaturants, optionally in a mixture with water or among them or with the mother liquors coming from a previous production cycle that used the same raw materials. The use of ketones, like acetone, as such, (Ex.7, 9) or in a mixture with some of the above mentioned alcohols (Ex.11, 12), produces an amorphous precipitate not suitable to be utilized for the direct compression because of the powder very low density. For industrial purpose a powder having low density (<0,2 g/mL) requires an additional operation (compactation / dry granulation / humid granulation) to produce tablets.

Data set [2] in a line: Release test of tablets (Eur. Ph. 2.9.3, blade stirrer, artificial gastric buffer without pepsin). It counts as physicochemical. Conditions: tablets containing the salt; compared with tablets containing other known salts. Here is the method: The release test was carried out according to Eur. Ph. 2.9.3 with a blade stirrer (100 rpm) in 1000 mL of artificial gastric buffer without pepsin (Eur. […] The title is carried out by drawing 10 mL of medium, filtering on paper then evaluating the acid content by the spectrophotometer at the wavelength of 330 nm versus standard. The tablet hardness (N) is evaluated by a Schleuninger 6D durometer. The compression force was settled to obtain three intervals of tablet hardness: 40-90 N; 90-120Ne> […]. Table 2 : release of (R) α-lipoic acid tablet

Data set [3] in a line: Absorption and bioavailability of tablets. It counts as in vivo. As to conditions: formulated in tablet; compared with the corresponding tromethamine salt and lipoic acid as a racemate at equivalent doses.

Structures are written as SMILES.

Regarding `O=C(O)CCCC[C@@H]1CCSS1` [Ex. 1, Trometamol (R) α-lipoate, reference compound], the “pH 1 % in water” value in data set [1] is given as 6.6. Also, the Powder apparent density in “Powder apparent density” is on record as 0.5-0.7.

On to `O=C(O)CCCC[C@@H]1CCSS1` [Ex. 6, Cystamine (R) α-lipoate], for which the “pH 1 % in water” value in data set [1] is listed as 6.6. For the same compound, the dissolution profile result in data set [2] is listed as “dissolution profile better”.

In the case of `O=C(O)CCCC[C@@H]1CCSS1` [Ex. 7, Diazobicyclo [2,2,2] octane (R) α-lipoate], the “pH 1 % in water” value in data set [1] is on record as 5.2. For the same compound, in the data set “Powder apparent density”, the Powder apparent density is reported as 0.4-0.6. The dissolution profile entry in data set [2] is on record as “dissolution profile better”.

Take `O=C(O)CCCC[C@@H]1CCSS1` [Ex. 8, Piperazine (R) α-lipoato (2:1)]: the absorption and bioavailability result in data set [3] is “better absorption and bioavailability”. Besides, the “pH 1 % in water” value in data set [1] is 5.5. For the same compound, the Powder apparent density in “Powder apparent density” is reported as 0.5-0.6. Besides, the dissolution profile entry in data set [2] is reported as “dissolution profile better”.

On to `O=C(O)CCCC[C@@H]1CCSS1` [Ex. 12, Piperazine (R) α-lipoate (1:1)], for which the “pH 1 % in water” value in data set [1] came to 7.2.
